# Source: US8765690B2, “Treatment of cancer with glufosfamide in patients not receiving insulin therapy” (Threshold Pharmaceuticals, Inc., priority 2007, dated 2014)
# Where “and” joins values, the source holds several entries; their conditions need not be identical. Identical values can stand only once. Counter-ions that a name gives are not always drawn.
# Columns and labels:
# [1] = tested on: gemcitabine resistant metastatic pancreatic cancer; assay: Phase 3 clinical trial of glufosfamide versus best supportive care, overall survival; assay type: in vivo, human; conditions: for Actual overall survival: individual diabetic patient, named GLD given orally in combination with glufosfamide 4500 mg/m^2 over 6 hours once every 3 weeks; for relative risk for overall survival in Group 1 and Group 2 patients: glufosfamide vs BSC
# Method: Glufosfamide is a prodrug of an alkylating agent useful in the treatment of cancer. A multi-center, randomized, open-label phase 3 clinical trial was conducted to evaluate the safety and efficacy of glufosfamide in treating gemcitabine resistant metastatic pancreatic cancer as measured by overall survival compared to BSC (best supportive care). Three hundred and three patients were randomized to the trial: 148 patients were randomized to the glufosfamide arm (n=148, Group 1) and 155 to BSC (n=155, Group 2).
# Patients in Group 1 were administered glufosfamide for up to 42 weeks. Glufosfamide was administered intravenously over 6 hours once every 3 weeks at 4500 mg/m^2 for up to 14 doses.
# One-quarter of the dose was infused over 30 minutes and the remainder over the following five and one-half hours.
# To assess the efficacy of glufosfamide treatment, patients in Group 1 and Group 2 were not administered any medication known to have antitumor effects other than glufosfamide, e.g., the patients were not administered any other chemotherapy or systemic cytotoxic/cytostatic agents. However, other appropriate supportive measures and concomitant medications not known to have antitumor effects, such as analgesics, antibiotics, transfusions, hematopoietic colony-stimulating factors (as therapy but not as prophylaxis), erythropoietin, and megestrol acetate for appetite stimulation were administered when appropriate.
# Tumor assessment was performed at baseline and once every 6 weeks for the first 24 weeks and then once every 9 weeks. The primary efficacy indicator was the overall survival in Group 1 compared to that in Group 2.
# Seven diabetic patients (Group 1A) having gemcitabine resistant pancreatic cancer were treated with glufosfamide for 2-11 cycles in combination with various glucose lowering drugs (GLDs) other than insulin (see Table 2 below). Glufosfamide was administered intravenously over 6 hours, once every 3 weeks, at 4500 mg/m^2. The GLD was administered orally, once every day or qd, […] prior to the first glufosfamide administration; except that, the GLD was administered to patient no. 6 three times daily or tid. […] Tumor assessment was performed at baseline and once every 6 weeks for the first 24 weeks and then once every 9 weeks. Efficacy outcomes were evaluated based on comparing the overall median survival in Group 1A with that in Group 2A. The median overall survival in the Group 1A patients was 418 days (95% CI; 85 days-643 days) compared to 84 days (95% CI; 45 days-102 days) for those in group 2A (FIG. 3).
# MiaPaCa-2-RFP tumor = assay: Surgical orthotopic implantation MiaPaCa-2-RFP pancreatic tumor model in nude mice, survival; assay type: in vivo, NCr nu/nu mice
# Method: A total of sixty male NCr nu/nu mice, 5-6 weeks old, were used in the study. Original breeding pairs were purchased from Taconic, Germantown, N.Y. Test animals were bred and maintained in a HEPA filtered environment for the experiment. Cages, food and bedding were autoclaved. The animal diets were obtained from PMI Nutrition International Inc. (Brentwood, Mo.).
# RFP gene transduction of MiaPaCa-2 cells: For RFP gene transduction, 20% confluent MiaPaCa-2 cells (ATCC, Rockville, Md.) were incubated with a 1:1 precipitated mixture of retroviral supernatants of PT67 cells and RPMI 1640 for 72 h. Fresh medium was replenished at this time. MiaPaCa-2 cells were harvested by trypsin-EDTA 72 h posttransduction and subcultured at a ratio of 1:15 into selective medium that contained 200 μg/ml G418. The level of G418 was increased to 1000 μg/ml stepwise. The brightest MiaPaCa-2 cell clones expressing RFP were selected, combined, and then amplified and transferred by conventional culture methods.
# Subcutaneous Xenografts: Tumor stocks were made by subcutaneously injecting MiaPaCa-2-RFP cells at a concentration of 5×10^6 cells/200 μl into the flank of nude mice. see e.g., Bouvet et al. Cancer Res., 2002, 62, 1534-40 incorporated herein by reference. The strong RFP expression of tumors grown in the subcutis of mice was confirmed before harvest. The tumor tissues harvested from s.c growth in nude mice were inspected, and any grossly necrotic or suspected necrotic or non-RFP tumor tissues were removed. Tumor tissues were subsequently cut into small fragments of approximately 2 mm^3. […]
# Statistical methods used in efficacy evaluation: Tumor volumes and tumor weights were compared using the Student's t-test with an α=0.05. Metastatic frequency of all groups were analyzed with Fisher's exact test with an α=0.05. Comparison of animal survival time between each treatment group and untreated control was analyzed using the Log-rank analysis with an α=0.05.
structure (smiles),measurement,setting,value
COc1ccc(Cl)cc1C(=O)NCCc1ccc(S(=O)(=O)NC(=O)NC2CCCCC2)cc1 [Glibenclamide],Actual overall survival,[1],85 and 643
CCC1=C(C)CN(C(=O)NCCc2ccc(S(=O)(=O)NC(=O)N[C@H]3CC[C@H](C)CC3)cc2)C1=O [Glimepiride],Actual overall survival,[1],54
CN(CCOc1ccc(CC2SC(=O)NC2=O)cc1)c1ccccn1 (stereo not shown) [Rosiglitazone maleate],Actual overall survival,[1],479
Cc1ccc(S(=O)(=O)NC(=O)NN2CC3CCCC3C2)cc1 (stereo not shown) [Gliclazide],Actual overall survival,[1],145 and 476+
Cc1cnc(C(=O)NCCc2ccc(S(=O)(=O)NC(=O)NC3CCCCC3)cc2)cn1 [Glipizide],Actual overall survival,[1],418
"O=P(NCCCl)(NCCCl)O[C@@H]1O[C@H](CO)[C@@H](O)[C@H](O)[C@H]1O [glufosfamide, beta-D-glucosyl-ifosfamide mustard]",median overall survival,MiaPaCa-2-RFP tumor; glufosfamide 50 mg/kg i.v. qd x 7 alone,26 days
same,median overall survival,"MiaPaCa-2-RFP tumor; glufosfamide 50 mg/kg i.v. qd x 7 in combination with glimepiride 12 mg/kg p.o. qd x 14, log rank p<0.01",35 days
same,survival improvement compared to glufosfamide administered alone,"MiaPaCa-2-RFP tumor; glufosfamide 50 mg/kg in combination with glimepiride 12 mg/kg, FIG. 4",more effective in extending survival
same,median overall survival,"[1]; Group 1 (n=148), glufosfamide 4500 mg/m^2 i.v. over 6 hours once every 3 weeks, all randomized patients",105 days
same,median overall survival,[1]; Group 1 patients (n=123) not administered insulin prior to first glufosfamide administration,115 days
same,relative risk for overall survival in Group 1 and Group 2 patients,"[1]; diabetic patients receiving glucose lowering drug other than insulin, p=0.020",0.24
same,relative risk for overall survival in Group 1 and Group 2 patients,"[1]; proportional hazards model stratified by KPS, all patients, p=0.187",0.848
same,relative risk for overall survival in Group 1 and Group 2 patients,"[1]; patients not administered insulin prior, p=0.048",0.761
same,benefit from the administration of glufosfamide,"[1]; patients receiving a glucose lowering drug other than insulin, compared with patients not receiving such drugs",more benefit
same,benefit from the administration of glufosfamide,[1]; patients receiving insulin,no benefit or less benefit
same,median overall survival,"[1]; seven diabetic Group 1 patients (Group 1A) on glufosfamide plus a glucose lowering drug other than insulin, no prior insulin",418 days
